One assay concerns Staphylococcus aureus. Description: Antibacterial activity against Staphylococcus aureus ATCC 25923. The class given is functional.
A further assay has as its system Pseudomonas aeruginosa. The experiment in a line: Antimicrobial activity against Pseudomonas aeruginosa. The format is functional.
Another assay has as its system Escherichia coli. The experiment in a line: Inhibition of protein synthesis in Escherichia coli by coupled transcription-translation assay. The format is functional, organism-based.

Molecules are shown by their SMILES. Converted amounts (≈) assume the structure as drawn.

The MIC is the least concentration at which growth counts as inhibited. A low value points to a more susceptible organism. By MIC90 is commonly meant an inhibitory concentration at the 90% level, which refers to growth in some studies and to a panel of isolates in others. A lower MIC90 goes with higher susceptibility. What is called IC50 is the concentration at which inhibition is half-maximal. A higher IC50 goes with a need for much substance.

On to `N[C@@H]1C[C@H](N)CN(c2nc(Nc3ccc(NC(=O)c4ccc(Cl)cc4)c(O)c3)nc(N3C[C@H](N)C[C@H](N)C3)n2)C1`, for which 16 µg/mL (≈ 28.2 µM) was the least that counted as inhibitory against Staphylococcus aureus (MIC). The same compound showed an MIC90 against Pseudomonas aeruginosa of 8 µg/mL (≈ 14.1 µM).
In the assay on Escherichia coli, `N[C@@H]1C[C@H](N)CN(c2nc(Nc3ccc(Cl)c(Cl)c3)nc(N3C[C@H](N)C[C@H](N)C3)n2)C1` had a 50% inhibitory concentration (IC50) of 10 µM.
With `NC1CCCN(c2nc(Nc3ccc(Cl)c(Cl)c3)nc(N3CCCC(N)C3)n2)C1` (centres undefined), the IC50 in the assay on Escherichia coli is > 1000 µM.
Turning to `N[C@@H]1C[C@H](N)CN(c2ncnc(Nc3ccc(NC(=O)c4ccc5ccccc5c4O)cc3)n2)C1`, the concentration for half-maximal inhibition (IC50) in the assay with Escherichia coli was 16 µM.
For `NCCN(CCN)c1nc(Nc2ccc(NC(=O)c3ccc(Cl)cc3)c(O)c2)nc(N2C[C@H](N)C[C@H](N)C2)n1`, in the assay on Escherichia coli, the IC50 was 18 µM. For the same compound, inhibition of growth in the assay on Staphylococcus aureus (MIC) required 32 µg/mL (≈ 57.5 µM).
On to `N[C@@H]1C[C@H](N)CN(c2nc(Nc3ccc(NC(=O)c4ccc5ccccc5c4O)cc3)nc(N3C[C@@H](N)C[C@H]3CO)n2)C1`, for which, in the assay with Escherichia coli, the IC50 was found to be 19 µM. 8 µg/mL (≈ 13.7 µM) was the least that counted as inhibitory in the assay with Staphylococcus aureus (MIC).
For the compound `NC1CN(c2nc(Nc3ccc(NC(=O)c4ccc(Cl)cc4)c(O)c3)nc(N3C[C@H](N)C[C@H](N)C3)n2)C1`, the concentration for half-maximal inhibition (IC50) in the assay on Escherichia coli turned out to be 14 µM.
Same read-out and setting: the value for `NC(=O)C1CCN(c2nc(Nc3ccc(NC(=O)c4ccc(Cl)cc4)c(O)c3)nc(N3C[C@H](N)C[C@H](N)C3)n2)CC1` was > 1000 µM.
Consider `Cc1ccc(S(=O)(=O)N(Cc2ccccc2)c2ccc(Nc3nc(N4C[C@H](N)C[C@H](N)C4)nc(N4C[C@@H](N)[C@@H](N)C4)n3)cc2O)cc1`, for which the IC50 in the assay with Escherichia coli came out at 36 µM. In the assay on Staphylococcus aureus, this compound registered a minimal inhibitory concentration (MIC) of 16 µg/mL (≈ 24.2 µM).
`NC[C@H]1[C@@H](O)CCN1c1nc(Nc2ccc(NC(=O)c3ccc4ccccc4c3O)cc2)nc(N2C[C@H](N)C[C@H](N)C2)n1` displayed an IC50 in the assay with Escherichia coli of 10 µM. The minimum inhibitory concentration (MIC) with Staphylococcus aureus was found to be 16 µg/mL (≈ 27.4 µM).
In the same order, the values of `N[C@@H]1C[C@H](N)CN(c2nc(Nc3ccc(NC(=O)c4ccc5ccccc5c4O)cc3)nc(N3CCCC(O)C3)n2)C1` (some centres undefined) are 310 µM and 16 µg/mL (≈ 28.1 µM).
For the compound `Cc1ccc(S(=O)(=O)N(Cc2ccccc2)c2ccc(Nc3nc(N4CCC(C(N)=O)CC4)nc(N4C[C@H](N)C[C@H](N)C4)n3)cc2O)cc1`, in the assay with Escherichia coli, the 50% inhibitory concentration (IC50) is > 1000 µM.
For the compound `NC[C@H]1[C@@H](O)CCN1c1nc(Nc2ccc(NC(=O)c3ccc(Cl)cc3)c(O)c2)nc(N2C[C@H](N)C[C@H](N)C2)n1`, the IC50 in the assay on Escherichia coli was 19 µM. This compound had a minimal inhibitory concentration (MIC) against Staphylococcus aureus of 32 µg/mL (≈ 56.2 µM).
Taken in the same sequence, the figures for `N[C@@H]1C[C@H](N)CN(c2nc(Nc3ccc(NC(=O)c4ccc(Cl)cc4)c(O)c3)nc(N3CCCC(O)C3)n2)C1` (some centres undefined) were 40 µM and 32 µg/mL (≈ 57.8 µM).
Taken in the same sequence, the figures for `Cc1ccc(S(=O)(=O)N(Cc2ccccc2)c2ccc(Nc3nc(N4CCCC(O)C4)nc(N4C[C@H](N)C[C@H](N)C4)n3)cc2O)cc1` (some centres undefined) were 44 µM and 8 µg/mL (≈ 12.1 µM).
Taken in the same sequence, the figures for `NC[C@@H]1CN(c2nc(Nc3ccc(NC(=O)c4ccc5ccccc5c4O)cc3)nc(N3C[C@H](N)C[C@H](N)C3)n2)CC[C@@H]1O` were 21 µM and 16 µg/mL (≈ 26.7 µM).
In the assay on Escherichia coli, `Cc1ccc(S(=O)(=O)N(Cc2ccccc2)c2ccc(Nc3nc(N4C[C@H](N)C[C@H](N)C4)nc(N4CC[C@H](O)[C@H](CN)C4)n3)cc2O)cc1` returned a half-inhibitory concentration (IC50) of 27 µM. In the assay with Staphylococcus aureus, the minimum inhibitory concentration (MIC) amounted to 16 µg/mL (≈ 23.2 µM).
`Cc1ccc(S(=O)(=O)N(Cc2ccccc2)c2ccc(Nc3nc(N4C[C@H](N)C[C@H](N)C4)nc(N4C[C@@H](O)[C@@H](O)C4)n3)cc2O)cc1` returned a 50% inhibitory concentration (IC50) with Escherichia coli of 43 µM. Further, the minimal inhibitory concentration (MIC) with Staphylococcus aureus turned out to be 32 µg/mL (≈ 48.4 µM).
In the same order, the values of `Cc1ccc(S(=O)(=O)N(Cc2ccccc2)c2ccc(Nc3nc(N4CC(N)C4)nc(N4C[C@H](N)C[C@H](N)C4)n3)cc2O)cc1` are 11 µM and 160 µg/mL (≈ 254 µM).
`NCCN(CCN)c1nc(Nc2ccc(NC(=O)c3ccc4ccccc4c3O)cc2)nc(N(CCN)CCN)n1`: the half-maximal inhibitory concentration (IC50) with Escherichia coli was determined as 7 µM.
Same read-out and setting: the value for `CN[C@@H]1C[C@H](NC)CN(c2nc(Nc3ccc(Cl)c(Cl)c3)nc(N3C[C@H](NC)C[C@H](NC)C3)n2)C1` was 5 µM.
Regarding `N[C@@H]1C[C@H](N)CN(c2nc(Nc3ccc(NC(=O)c4ccc(Cl)cc4)c(O)c3)nc(N3C[C@@H](O)[C@@H](O)C3)n2)C1`, in the assay on Escherichia coli, the IC50 came to 77 µM. This compound also had an MIC in the assay on Staphylococcus aureus of 64 µg/mL (≈ 115 µM).
Regarding `N[C@@H]1C[C@H](N)CN(c2nc(Nc3ccc(NC(=O)c4ccc5ccccc5c4O)cc3)nc(N3C[C@H](N)C[C@H](N)C3)n2)C1`, in the assay on Escherichia coli, the half-maximal inhibitory concentration (IC50) is 7 µM.
As for `Cc1ccc(S(=O)(=O)N(Cc2ccccc2)c2ccc(Nc3nc(N4C[C@H](N)C[C@H](N)C4)nc(N4C[C@H](N)C[C@H](N)C4)n3)cc2O)cc1`, in the assay with Escherichia coli, it took 3 µM to reach half-maximal inhibition (IC50). The compound also had an MIC with Staphylococcus aureus of 8 µg/mL (≈ 11.9 µM).
Taken in the same sequence, the figures for `N[C@@H]1C[C@H](N)CN(c2nc(Nc3ccc(NC(=O)c4ccc(Cl)cc4)c(O)c3)nc(N3C[C@@H](N)C[C@@H](O)C3)n2)C1` were 40 µM and 64 µg/mL (≈ 112 µM).
In the same order, the values of `NC[C@@H]1CN(c2nc(Nc3ccc(NC(=O)c4ccc(Cl)cc4)c(O)c3)nc(N3C[C@H](N)C[C@H](N)C3)n2)CC[C@@H]1O` are 31 µM and 32 µg/mL (≈ 54.9 µM).
`N[C@@H]1C[C@H](N)CN(c2nc(Nc3ccc(NC(=O)c4ccc5ccccc5c4O)cc3)nc(N3C[C@@H](N)C[C@@H](O)C3)n2)C1` gave an IC50 in the assay with Escherichia coli of 17 µM. In the assay with Staphylococcus aureus, this compound returned a minimal inhibitory concentration (MIC) of 8 µg/mL (≈ 13.7 µM).
For the compound `Cc1ccc(S(=O)(=O)N(Cc2ccccc2)c2ccc(Nc3nc(N4C[C@H](N)C[C@H](N)C4)nc(N4C[C@@H](N)C[C@@H](O)C4)n3)cc2O)cc1`, half-maximal inhibition with Escherichia coli (IC50) was put at 17 µM. In the assay on Staphylococcus aureus, this compound yielded an MIC of 16 µg/mL (≈ 23.7 µM).
Taken in the same sequence, the figures for `N[C@@H]1C[C@H](N)CN(c2nc(Nc3ccc(NC(=O)c4ccc(Cl)cc4)c(O)c3)nc(N3C[C@@H](N)C[C@H]3CO)n2)C1` were 13 µM and 32 µg/mL (≈ 56.2 µM).
In the same order, the values of `N[C@@H]1C[C@H](N)CN(c2nc(Nc3ccc(NC(=O)c4ccc(Cl)cc4)c(O)c3)nc(N3C[C@@H](N)[C@@H](N)C3)n2)C1` are 58 µM and 16 µg/mL (≈ 28.9 µM).
Consider `N[C@@H]1C[C@H](O)CN(c2nc(Nc3ccc(NC(=O)c4ccc5ccccc5c4O)cc3)nc(N3C[C@@H](N)C[C@@H](O)C3)n2)C1`, for which, in the assay with Escherichia coli, the half-maximal inhibitory concentration (IC50) was 100 µM.
For the compound `NC[C@@H]1C[C@H](N)CN1c1nc(Nc2ccc(NC(=O)c3ccc4ccccc4c3O)cc2)nc(N2C[C@H](N)C[C@H](N)C2)n1`, the midpoint of inhibition in the assay with Escherichia coli, the IC50, lay at 10 µM. The compound further gave a minimal inhibitory concentration (MIC) against Staphylococcus aureus of 2 µg/mL (≈ 3.43 µM).
In the same order, the values of `Cc1ccc(S(=O)(=O)N(Cc2ccccc2)c2ccc(Nc3nc(N(CCN)CCN)nc(N4C[C@H](N)C[C@H](N)C4)n3)cc2O)cc1` are 1 µM and 8 µg/mL (≈ 12.1 µM).
Taken in the same sequence, the figures for `Cc1ccc(S(=O)(=O)N(Cc2ccccc2)c2ccc(Nc3nc(N4C[C@H](N)C[C@H](N)C4)nc(N4C[C@@H](N)C[C@H]4CN)n3)cc2O)cc1` were 13 µM and 2 µg/mL (≈ 2.97 µM).
In the assay on Escherichia coli, `Cc1ccc(S(=O)(=O)N(Cc2ccccc2)c2ccc(Nc3nc(N4C[C@H](N)C[C@H](N)C4)nc(N4C[C@@H](N)C[C@H]4CO)n3)cc2O)cc1` displayed a 50% inhibitory concentration (IC50) of 15 µM. The MIC against Staphylococcus aureus was found to be 8 µg/mL (≈ 11.9 µM).
In the case of `NC[C@@H]1C[C@H](N)CN1c1nc(Nc2ccc(NC(=O)c3ccc4ccccc4c3O)cc2)nc(N2C[C@H](N)C[C@@H]2CN)n1`, half-maximal inhibition in the assay with Escherichia coli (IC50) required 8 µM.
On to `Cc1ccc(S(=O)(=O)N(Cc2ccccc2)c2ccc(Nc3nc(N4C[C@H](N)C[C@H](N)C4)nc(N4CC[C@H](O)[C@@H]4CN)n3)cc2O)cc1`, for which the half-maximal inhibitory concentration (IC50) in the assay on Escherichia coli is 21 µM. In the assay with Staphylococcus aureus, the MIC amounted to 8 µg/mL (≈ 11.9 µM).
In the assay with Escherichia coli, `NC1CCN(c2nc(Nc3ccc(Cl)c(Cl)c3)nc(N3CCC(N)CC3)n2)CC1` displayed a half-inhibitory concentration (IC50) of 800 µM.
`CN[C@@H]1C[C@H](NC)CN(c2nc(Nc3ccc(NC(=O)c4ccc5ccccc5c4O)cc3)nc(N3C[C@H](N)C[C@H](N)C3)n2)C1` displayed an IC50 in the assay on Escherichia coli of 8 µM. The same compound came in with an MIC in the assay with Staphylococcus aureus of 8 µg/mL (≈ 13.1 µM).
In the same order, the values of `NC[C@@H]1C[C@H](CN)CN(c2nc(Nc3ccc(NC(=O)c4ccc5ccccc5c4O)cc3)nc(N3C[C@H](N)C[C@H](N)C3)n2)C1` are 8 µM and 4 µg/mL (≈ 6.54 µM).
In the same order, the values of `NC[C@@H]1C[C@H](CN)CN(c2nc(Nc3ccc(NC(=O)c4ccc(Cl)cc4)c(O)c3)nc(N3C[C@H](N)C[C@H](N)C3)n2)C1` are 11 µM and 16 µg/mL (≈ 26.8 µM).
Taken in the same sequence, the figures for `NC[C@@H]1C[C@H](N)CN1c1nc(Nc2ccc(NC(=O)c3ccc(Cl)cc3)c(O)c2)nc(N2C[C@H](N)C[C@H](N)C2)n1` were 12 µM and 32 µg/mL (≈ 56.3 µM).
In turn, `N[C@@H]1C[C@H](N)CN(c2nc(Nc3ccc(NC(=O)c4ccc5ccccc5c4O)cc3)nc(N3C[C@@H](O)[C@@H](O)C3)n2)C1` registered an IC50 in the assay with Escherichia coli of 72 µM. Moreover, inhibition of growth in the assay on Staphylococcus aureus (MIC) required 32 µg/mL (≈ 56 µM).
In the assay with Escherichia coli, `Cc1ccc(S(=O)(=O)N(Cc2ccccc2)c2ccc(Nc3nc(N4C[C@H](N)C[C@H](N)C4)nc(N4C[C@H](CN)C[C@H](CN)C4)n3)cc2O)cc1` showed an IC50 of 1 µM. Besides, in the assay with Staphylococcus aureus, the minimal inhibitory concentration (MIC) worked out at 8 µg/mL (≈ 11.4 µM).
In the assay with Escherichia coli, `NCCN(CCN)c1nc(Nc2ccc(NC(=O)c3ccc4ccccc4c3O)cc2)nc(N2C[C@H](N)C[C@H](N)C2)n1` had a half-inhibitory concentration (IC50) of 10 µM. For the same compound, it took 8 µg/mL (≈ 14 µM) to inhibit growth in the assay on Staphylococcus aureus (MIC).
The compound `O=C(N[C@H](CO)[C@H](O)c1ccc([N+](=O)[O-])cc1)C(Cl)Cl` [CHLORAMPHENICOL] came in with an MIC in the assay on Staphylococcus aureus of 8 µg/mL (≈ 24.8 µM).
